Reference: patent publication US7776833B2, “Use of cyclic bioisosters of purine system derivatives for treating diseases produced by disorders of niterergic and dopaminergic systems” (priority 2003, dated 2010)

Tests used:
Format in all cases: in vivo, Wistar rats
[1] = tested on: apomorphine-dependent erection; assay: Apomorphine-dependent erection in low-potency rats; conditions: compound 5 x 10 mg/kg intraperitoneally every 48 hours + apomorphine 0.1 mg/kg subcutaneously; 20 minutes monitoring; one value for the two compounds of the line
Text: One of the mechanisms regulating the sexual function of mammals is associated with functioning of the dopaminergic system of the brain. It is well known that a non-selective D1/D2 agonist apomorphine in low doses causes penile erection in rodents (Giuliano F., Allard J. Dopamine and male sexual function. Eur. Urol., 2001, 40 (6), 601-608; Giuliano F., Allard J., Rampin O. et. al. Pro-erectile effect of systemic apomorphine: existence of a spinal site action. J. Urol., 2002, 167 (1), 402-406; Brien S. E., Smallegange C., Gofton W. T., et. al. Development of a rat model of sexual performance anxiety: effect of behavioral and pharmacological hyperadrenergic stimulation on apomorphine-induced erections. Int. J. Impot. Res., 2002, 14 (2), 107-115.). In this connection, we have studied the effects of the compounds according to the invention on apomorphine-dependent erection in rats.
Nine groups of adult male Wistar rats weighing 350-450 g maintained at the normal (not inverted) light cycle were used in the experiments. To study the effect of the compounds on the sexual function, low-potency animals with a single erection were selected. Control group No. 1 (n=7) was composed of animals not injected with the compounds according to the invention. The animals of groups Nos. 2-9 (n=7) were injected with one of the compounds according to the invention selected from the group of compounds 2, 8, 9, 15, 19, 25, 31, 36, intraperitoneally in a course of 5 injections at a dose of 10 mg/kg with an interval between the injections 48 hours. Apomorphine was dissolved in 0.1% aqueous solution of ascorbic acid and then was injected to all animal subcutaneously at a dose of 0.1 mg/kg during 24-28 hours after the last injection of the compounds according to the invention. The monitoring of sexual activity was made individually for each animal immediately after the administration of apomorphine; the monitoring time was 20 minutes. The following indices were registered: the time of beginning of the first erection, time intervals between the erections, the number of erections for the entire period of observation.
The statistical analysis of the results was made using T-test and ξ-square test. The results are given in Table 3 as means±standard error of means.

[2] = tested on: nitrites and nitrates (NOx-); assay: Measurement of nitrates/nitrites (NOx-) in brain regions after the morphine abstinence experiment; conditions: 3 x 20 mg/kg intramuscularly
Summary of the method: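 Rat brain regions homogenized in 20 mM HEPES pH 7.5 at 4 °C; deproteinized supernatants treated with nitrate reductase, 25 μM NADPH, 25 μM FAD (37 °C, 30 min), then DAN in acid; naphthotriazole fluorescence (ex 365/em 405 nm) against sodium nitrate standard, expressed as nmol/mg protein (Bradford).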

[3] = tested on: nitric oxide synthase (NOS); assay: Nitric oxide synthase activity in brain regions, radiometric [3H]L-citrulline method; conditions: 3 x 20 mg/kg intramuscularly
Summary of the method: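 Rat cortex, hippocampus, mesencephalon, striatum, brainstem, hypothalamus and cerebellum were homogenized in 20 mM HEPES pH 7.5, and the 11000 g supernatant was incubated 15-60 min at 37 °C with [3H]L-arginine, 0.2 mM CaCl2, FAD, FMN, NADPH and BH4. [3H]L-citrulline was counted after Dowex removal of arginine. Ca2+-dependent/independent activity was split using EDTA ± L-NAME, per mg Bradford protein.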

[4] = tested on: physical dependence from morphine (morphine abstinence); assay: Morphine abstinence syndrome, signs scored in the open field test; conditions: Morphine − (morphine + compound); compound 3 x 20 mg/kg intramuscularly; one value for the three compounds
[5] = Groups Nos. 3-14, compound without morphine, one value for all 12 compounds
[6] = Morphine + compound, one value for the three compounds

Nc1ncnc2c(=O)n([C@@H]3O[C@H](CO)[C@@H](O)[C@H]3O)[nH]c(=O)c12.[Na] [Compound 31, sodium salt of 4-amino-7-(β-D-ribofuranosile)pyrimido[4,5-d]-6H-pyridazine-5,8-dione]
Latent period of first erection [1]: 5.12 ± 0.24 min | Number of erection for the entire period of observation [1]: 3.32 ± 0.31 | Time between 1st and 2nd erections [1]: 3.34 ± 0.69 min | Time between 3rd and 2nd erections [1]: 5.02 ± 1.01 min

O=c1[nH][nH]c(=O)c2nccnc12.[Li] [Compound 25, lithium salt of pyrazino[2,3-d]-6H-pyridazine-5,8-dione]
Latent period of first erection [1]: 5.24 ± 0.19 min | Number of erection for the entire period of observation [1]: 3.29 ± 0.27 | Time between 1st and 2nd erections [1]: 3.75 ± 0.64 min | Time between 3rd and 2nd erections [1]: 5.12 ± 0.87 min

Nc1ccnc2c(=O)n([C@@H]3O[C@H](CO)[C@@H](O)[C@H]3O)[nH]c(=O)c12.[Na] [Compound 2, sodium salt of 4-amino-7-(β-D-ribofuranosile)pyrido[2,3-d]-6H-pyridazine-5,8-dione]
Latent period of first erection [1]: 5.21 ± 0.30 min | Number of erection for the entire period of observation [1]: 3.13 ± 0.35 | Time between 1st and 2nd erections [1]: 3.94 ± 0.60 min | Time between 3rd and 2nd erections [1]: 5.52 ± 1.14 min

O=c1[nH][nH]c(=O)c2ncccc12.[K] [Compound 8, potassium salt of pyrido [2,3-d]-6H-pyridazine-5,8-dione]
Latent period of first erection [1]: 5.21 ± 0.30 min | Number of erection for the entire period of observation [1]: 3.13 ± 0.35 | Time between 1st and 2nd erections [1]: 3.94 ± 0.60 min | Time between 3rd and 2nd erections [1]: 5.52 ± 1.14 min

O=c1[nH]n([C@@H]2O[C@H](CO)[C@@H](O)[C@H]2O)c(=O)c2ccccc12.[Na] [Compound 9, sodium salt of 2-(β-D-ribofuranosile)benzo[d]-3H-pyridazine-1,4-dione]
Latent period of first erection [1]: 5.09 ± 0.27 min | Number of erection for the entire period of observation [1]: 3.24 ± 0.39 | Time between 1st and 2nd erections [1]: 3.87 ± 0.59 min | Time between 3rd and 2nd erections [1]: 5.19 ± 0.78 min

Nc1ncc2c(=O)[nH][nH]c(=O)c2n1.[Na] [Compound 36, sodium salt of 2-amino-pyrimido[4,5-d]-6H-pyridazine-5,8-dione]
Latent period of first erection [1]: 5.12 ± 0.24 min | Number of erection for the entire period of observation [1]: 3.32 ± 0.31 | Time between 1st and 2nd erections [1]: 3.34 ± 0.69 min | Time between 3rd and 2nd erections [1]: 5.02 ± 1.01 min

O=c1[nH]n([C@@H]2O[C@H](CO)[C@@H](O)[C@H]2O)c(=O)c2nccnc12.[Na] [Compound 19, sodium salt of 7-(β-D-ribofuranosile)pyrazino[2,3-d]-6H-pyridazine-5,8-dione]
Latent period of first erection [1]: 5.24 ± 0.19 min | Number of erection for the entire period of observation [1]: 3.29 ± 0.27 | Time between 1st and 2nd erections [1]: 3.75 ± 0.64 min | Time between 3rd and 2nd erections [1]: 5.12 ± 0.87 min

Nc1cnc2c(=O)n([C@@H]3O[C@H](CO)[C@@H](O)[C@H]3O)[nH]c(=O)c2n1.[Na] [Compound 21, sodium salt of 3-amino-7-(β-D-ribofuranosile)pyrazino[2,3-d]-6H-pyridazine-5,8-dione]
Nitrites, brainstem [2, 5]: 6.31 ± 0.58 nmol/mg of protein | Nitrites, cerebellum [2, 5]: 6.66 ± 0.63 nmol/mg of protein | Nitrites, cerebral cortex [2, 5]: 4.31 ± 0.37 nmol/mg of protein | Nitrites, hippocampus [2, 5]: 6.47 ± 0.72 nmol/mg of protein | Nitrites, hypothalamus [2, 5]: 6.77 ± 0.83 nmol/mg of protein | Nitrites, midbrain [2, 5]: 6.65 ± 0.70 nmol/mg of protein | Nitrites, striatum [2, 5]: 6.11 ± 0.29 nmol/mg of protein | Nitrites, brainstem [2, 6]: 7.07 ± 0.85 nmol/mg of protein | Nitrites, cerebellum [2, 6]: 5.76 ± 0.49 nmol/mg of protein | Nitrites, cerebral cortex [2, 6]: 4.62 ± 0.27 nmol/mg of protein | Nitrites, hippocampus [2, 6]: 5.27 ± 0.41 nmol/mg of protein | Nitrites, hypothalamus [2, 6]: 6.87 ± 0.75 nmol/mg of protein | Nitrites, midbrain [2, 6]: 5.99 ± 0.58 nmol/mg of protein | Nitrites, striatum [2, 6]: 3.57 ± 0.42 nmol/mg of protein | Activity of NOS, hippocampus [3, 5]: 3.09 ± 0.16 nmol/min/mg of protein | Activity of NOS, hypothalamus [3, 5]: 5.45 ± 0.24 nmol/min/mg of protein | Activity of NOS, midbrain [3, 5]: 2.60 ± 0.29 nmol/min/mg of protein | Activity of NOS, striatum [3, 5]: 1.26 ± 0.08 nmol/min/mg of protein | Activity of NOS, hippocampus [3, 6]: 2.33 ± 0.11 nmol/min/mg of protein | Activity of NOS, hypothalamus [3, 6]: 5.47 ± 0.32 nmol/min/mg of protein | Activity of NOS, midbrain [3, 6]: 2.03 ± 0.31 nmol/min/mg of protein | Activity of NOS, striatum [3, 6]: 1.21 ± 0.10 nmol/min/mg of protein | Authentic differences (ξ-square criterion) in appearance of signs of abstinence: <<Wet dog>> shakes [4]: 0.7821 | Authentic differences (ξ-square criterion) in appearance of signs of abstinence: Aggression [4]: 0.7921 | Authentic differences (ξ-square criterion) in appearance of signs of abstinence: Convulsions [4]: 0.3456 | Authentic differences (ξ-square criterion) in appearance of signs of abstinence: Diarrhea [4]: 0.0067 | Authentic differences (ξ-square criterion) in appearance of signs of abstinence: Dyspnea [4]: 0.0567 | Authentic differences (ξ-square criterion) in appearance of signs of abstinence: Forelimb jogging [4]: 0.6745 | Authentic differences (ξ-square criterion) in appearance of signs of abstinence: Grit with teeth [4]: 0.2994 | Authentic differences (ξ-square criterion) in appearance of signs of abstinence: Mastication [4]: 0.1975 | Authentic differences (ξ-square criterion) in appearance of signs of abstinence: Piloerection [4]: 0.2567 | Authentic differences (ξ-square criterion) in appearance of signs of abstinence: Ptosis [4]: 0.0105 | Authentic differences (ξ-square criterion) in appearance of signs of abstinence: Rhinorrhea [4]: 0.2131 | Authentic differences (ξ-square criterion) in appearance of signs of abstinence: Squeak when touched [4]: 0.1968

Nc1cccc2c(=O)[nH][nH]c(=O)c12.[Na] [Compound 15, sodium salt of 5-amino-benzo[d]-3H-pyridazine-1,4-dione]
Latent period of first erection [1]: 5.09 ± 0.27 min | Number of erection for the entire period of observation [1]: 3.24 ± 0.39 | Time between 1st and 2nd erections [1]: 3.87 ± 0.59 min | Time between 3rd and 2nd erections [1]: 5.19 ± 0.78 min
